Reference: US20240190849A1, “AMINOPYRIMIDINE COMPOUNDS AND METHODS OF THEIR USE” (TYRA BIOSCIENCES, INC., priority 2021, published 2024)

Key:
Settings in all cases: FGFR binding data
FGFR3 (V555M) = biological target: T1, FGFR3 (V555M) (Homo sapiens, UniProt P22607, V555M); assay: Kinase binding assay (kinase-tagged T7 phage, affinity beads, qPCR readout), FGFR3 (V555M)
T1 construct: made in house; host or cells: E. coli derived from BL21, infected with T7 phage
Description: (§1) Kinase-tagged T7 phage strains were prepared in an E. coli host derived from the BL21 strain. E. coli were grown to log-phase and infected with T7 phage and incubated with shaking at 32° C. until lysis. The lysates were centrifuged and filtered to remove cell debris. Streptavidin-coated magnetic beads were treated with biotinylated small molecule ligands for 30 minutes at room temperature to generate affinity resins for kinase assays. The liganded beads were blocked with excess biotin and washed with blocking buffer SeaBlock (Pierce), 1% BSA, 0.05% Tween 20, 1 mM DTT to remove unbound ligand and to reduce non-specific binding. Binding reactions were assembled by combining kinases, liganded affinity beads, and test compounds in 1× binding buffer (20% SeaBlock, 0.17×PBS, 0.05% Tween 20, 6 mM DTT).
(§2) Test compounds were prepared as 111× stocks in 100% DMSO. Kds were determined using an 11-point 3-fold compound dilution series with three DMSO control points. All compounds for Kd measurements are distributed by acoustic transfer (non-contact dispensing) in 100% DMSO. The compounds were then diluted directly into the assays such that the final concentration of DMSO was 0.9%. All reactions performed in polypropylene 384-well plate. Each was a final volume of 0.02 ml. The assay plates were incubated at room temperature with shaking for 1 hour and the affinity beads were washed with wash buffer (1×PBS, 0.05% Tween 20). The beads were then re-suspended in elution buffer (1×PBS, 0.05% Tween 20, 0.5 μM non-biotinylated affinity ligand) and incubated at room temperature with shaking for 30 minutes. The kinase concentration in the eluates was measured by qPCR.
(§3) Binding constants were calculated with a standard dose-response curve using the Hill equation: […]
(§4) The Hill Slope was set to −1. Curves were fitted using a non-linear least square fit with the Levenberg-Marquardt algorithm.

FGFR3 = biological target: T2, FGFR3 (Homo sapiens, UniProt P22607); assay: Kinase binding assay (kinase-tagged T7 phage, affinity beads, qPCR readout), FGFR3
T2 construct: made in house; host or cells: E. coli derived from BL21, infected with T7 phage
Description: as §1, §2, §3, §4

FGFR1 = biological target: T3, FGFR1 (Homo sapiens, UniProt P11362); assay: Kinase binding assay (kinase-tagged T7 phage, affinity beads, qPCR readout), FGFR1
T3 construct: made in house; host or cells: E. coli derived from BL21, infected with T7 phage
Description: as §1, §2, §3, §4

FGFR2 = biological target: T4, FGFR2 (Homo sapiens, UniProt P21802); assay: Kinase binding assay (kinase-tagged T7 phage, affinity beads, qPCR readout), FGFR2
T4 construct: made in house; host or cells: E. coli derived from BL21, infected with T7 phage
Description: as §1, §2, §3, §4

T2 sequence (P22607 23-806): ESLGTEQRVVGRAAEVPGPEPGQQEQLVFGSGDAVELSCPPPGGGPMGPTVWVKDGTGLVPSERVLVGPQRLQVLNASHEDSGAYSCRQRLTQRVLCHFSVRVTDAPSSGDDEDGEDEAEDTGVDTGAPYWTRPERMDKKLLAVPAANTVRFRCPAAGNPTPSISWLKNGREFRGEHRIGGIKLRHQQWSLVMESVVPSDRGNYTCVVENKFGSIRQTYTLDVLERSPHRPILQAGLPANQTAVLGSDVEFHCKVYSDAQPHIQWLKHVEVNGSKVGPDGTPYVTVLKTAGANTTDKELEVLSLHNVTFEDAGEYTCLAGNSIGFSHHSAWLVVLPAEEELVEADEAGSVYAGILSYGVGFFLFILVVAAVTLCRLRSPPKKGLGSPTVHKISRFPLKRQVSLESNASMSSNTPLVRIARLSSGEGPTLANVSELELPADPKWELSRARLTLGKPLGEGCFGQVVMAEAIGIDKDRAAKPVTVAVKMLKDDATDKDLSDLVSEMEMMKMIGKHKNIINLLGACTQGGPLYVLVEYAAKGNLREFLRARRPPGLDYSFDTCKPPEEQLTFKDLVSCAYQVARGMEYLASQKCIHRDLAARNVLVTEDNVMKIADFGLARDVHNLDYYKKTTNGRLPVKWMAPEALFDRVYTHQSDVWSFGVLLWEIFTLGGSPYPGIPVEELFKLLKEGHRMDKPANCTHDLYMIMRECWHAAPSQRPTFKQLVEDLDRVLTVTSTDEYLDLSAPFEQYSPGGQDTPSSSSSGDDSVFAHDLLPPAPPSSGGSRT
T4 sequence (P21802 22-821): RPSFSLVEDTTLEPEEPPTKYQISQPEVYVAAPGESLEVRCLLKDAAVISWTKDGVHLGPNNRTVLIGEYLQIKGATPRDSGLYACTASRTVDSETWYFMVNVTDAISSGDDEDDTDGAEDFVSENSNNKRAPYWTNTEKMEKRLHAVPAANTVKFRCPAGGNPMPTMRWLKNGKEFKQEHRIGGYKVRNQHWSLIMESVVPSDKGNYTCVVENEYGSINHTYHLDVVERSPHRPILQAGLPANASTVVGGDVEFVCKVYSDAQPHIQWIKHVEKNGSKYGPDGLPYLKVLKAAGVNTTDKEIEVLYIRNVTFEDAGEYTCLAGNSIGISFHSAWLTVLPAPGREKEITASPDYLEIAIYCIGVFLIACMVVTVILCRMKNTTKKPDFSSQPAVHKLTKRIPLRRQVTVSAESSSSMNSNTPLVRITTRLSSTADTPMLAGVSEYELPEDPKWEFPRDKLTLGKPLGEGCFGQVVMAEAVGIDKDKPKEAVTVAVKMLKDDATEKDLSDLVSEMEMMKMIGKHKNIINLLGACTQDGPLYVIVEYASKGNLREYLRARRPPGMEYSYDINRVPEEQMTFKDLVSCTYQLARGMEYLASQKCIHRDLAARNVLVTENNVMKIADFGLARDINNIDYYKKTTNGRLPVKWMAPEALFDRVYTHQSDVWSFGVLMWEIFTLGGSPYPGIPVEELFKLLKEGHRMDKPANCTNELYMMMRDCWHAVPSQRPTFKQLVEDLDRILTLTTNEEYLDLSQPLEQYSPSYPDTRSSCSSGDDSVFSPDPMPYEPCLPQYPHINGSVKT
T1 sequence (P22607 23-806 V555M): as the sequence (P22607 23-806) above, with V533M counted along it
T3 sequence (P11362 22-822): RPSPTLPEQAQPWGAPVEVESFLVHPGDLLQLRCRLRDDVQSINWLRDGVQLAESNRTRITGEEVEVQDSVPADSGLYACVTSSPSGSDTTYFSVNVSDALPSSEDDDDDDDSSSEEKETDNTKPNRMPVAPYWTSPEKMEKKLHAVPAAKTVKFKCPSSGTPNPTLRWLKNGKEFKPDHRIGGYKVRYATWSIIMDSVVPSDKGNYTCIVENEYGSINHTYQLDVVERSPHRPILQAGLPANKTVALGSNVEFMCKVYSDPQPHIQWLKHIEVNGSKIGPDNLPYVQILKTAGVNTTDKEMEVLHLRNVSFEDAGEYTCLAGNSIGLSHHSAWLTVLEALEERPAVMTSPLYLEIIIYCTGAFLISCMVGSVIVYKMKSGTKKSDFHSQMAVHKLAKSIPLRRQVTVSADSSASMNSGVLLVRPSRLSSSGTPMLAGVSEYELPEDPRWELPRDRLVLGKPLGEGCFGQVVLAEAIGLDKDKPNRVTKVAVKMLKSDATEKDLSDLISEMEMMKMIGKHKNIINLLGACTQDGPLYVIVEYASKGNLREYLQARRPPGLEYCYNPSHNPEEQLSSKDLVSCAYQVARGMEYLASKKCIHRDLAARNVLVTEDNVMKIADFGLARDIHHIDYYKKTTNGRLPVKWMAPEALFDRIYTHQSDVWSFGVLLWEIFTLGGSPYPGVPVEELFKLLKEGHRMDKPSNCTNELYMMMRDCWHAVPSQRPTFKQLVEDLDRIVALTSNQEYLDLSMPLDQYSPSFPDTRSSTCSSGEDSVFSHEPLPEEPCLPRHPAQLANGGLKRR

Row | SMILES | Kd (FGFR3 (V555M)) [nM] | Kd (FGFR3) [nM] | Kd (FGFR1) [nM] | Kd (FGFR2) [nM]
1 | C=CC(=O)Nc1ccc2c(-c3ccnc(Nc4cnn(C(C)C)c4)n3)cn(C)c2c1 [Example 96, N-[3-[2-[(1-isopropylpyrazol-4-yl)amino]pyrimidin-4-yl]-1-methyl-indol-6-yl]prop-2-enamide] | 0.1 to 100 | 0.1 to 100 | 0.1 to 100 | 0.1 to 100
2 | C=CC(=O)Nc1cnc2c(c1)c(C)cn2-c1ccnc(Nc2ccn(C)n2)n1 [Example 98, N-[3-methyl-1-[2-[(1-methylpyrazol-3-yl)amino]pyrimidin-4-yl]pyrrolo[2,3-b]pyridin-5-yl]prop-2-enamide] | 0.1 to 100 | 0.1 to 100 | 0.1 to 100 | 0.1 to 100
3 | C=CC(=O)Nc1ccc2c(c1)c(C)cn2-c1nc(Nc2ccn(C3CC3)n2)ncc1C [Example 99, N-[1-[2-[(1-cyclopropylpyrazol-3-yl)amino]-5-methyl-pyrimidin-4-yl]-3-methyl-indol-5-yl]prop-2-enamide] | 0.1 to 100 | 0.1 to 100 | 0.1 to 100 | 0.1 to 100
4 | C=CC(=O)Nc1ccc2c(-c3ccnc(Nc4ccn(CCO)n4)n3)cn(C)c2c1 [Example 101, N-[3-[2-[[1-(2-hydroxyethyl)pyrazol-3-yl]amino]pyrimidin-4-yl]-1-methyl-indol-6-yl]prop-2-enamide] | 100 to 250 | 0.1 to 100 | 100 to 250 | 250 to 1000
5 | C=C(C)C(=O)Nc1ccc2c(c1)c(C)cn2-c1nc(Nc2ccnn2C)ncc1C [Example 104, 2-methyl-N-[3-methyl-1-[5-methyl-2-[(2-methylpyrazol-3-yl)amino]pyrimidin-4-yl]indol-5-yl]prop-2-enamide] | > 1000 | > 1000 | > 1000 | > 1000
6 | C=CC(=O)Nc1ccc2c(-c3ccnc(Nc4cnn(CC5CC5)c4)n3)cn(C)c2c1 [Example 105, N-[3-[2-[[1-(cyclopropylmethyl)pyrazol-4-yl]amino]pyrimidin-4-yl]-1-methyl-indol-6-yl]prop-2-enamide] | 0.1 to 100 | 0.1 to 100 | 0.1 to 100 | 0.1 to 100
7 | C#CC(=O)Nc1ccc2c(c1)c(C)cn2-c1nc(Nc2ccnn2C)ncc1C [Example 108, N-[3-methyl-1-[5-methyl-2-[(2-methylpyrazol-3-yl)amino]pyrimidin-4-yl]indol-5-yl]prop-2-ynamide] | 0.1 to 100 | 0.1 to 100 | 0.1 to 100 | 0.1 to 100
8 | C=CS(=O)(=O)Nc1ccc2c(c1)c(C)cn2-c1nc(Nc2ccnn2C)ncc1C [Example 109, N-[3-methyl-1-[5-methyl-2-[(2-methylpyrazol-3-yl)amino]pyrimidin-4-yl]indol-5-yl]ethenesulfonamide] | 0.1 to 100 | 0.1 to 100 | 0.1 to 100 | 0.1 to 100
9 | C=C(F)C(=O)Nc1ccc2c(c1)c(C)cn2-c1nc(Nc2ccnn2C)ncc1C [Example 110, 2-fluoro-N-[3-methyl-1-[5-methyl-2-[(2-methylpyrazol-3-yl)amino]pyrimidin-4-yl]indol-5-yl]prop-2-enamide] | 250 to 1000 | > 1000 | > 1000 | > 1000
10 | C=CC(=O)Nc1ccc2c(-c3ccnc(Nc4cc(C)[nH]n4)n3)cn(C)c2c1 [Example 111, N-[1-methyl-3-[2-[(5-methyl-1H-pyrazol-3-yl)amino]pyrimidin-4-yl]indol-6-yl]prop-2-enamide] | > 1000 | > 1000 | > 1000 | > 1000
11 | C=CC(=O)Nc1ccc2c(-c3ccnc(Nc4ccn(C5CC5)n4)n3)cn(C)c2c1 [Example 112, N-[3-[2-[(1-cyclopropylpyrazol-3-yl)amino]pyrimidin-4-yl]-1-methyl-indol-6-yl]prop-2-enamide] | 0.1 to 100 | 0.1 to 100 | 100 to 250 | 100 to 250

The remaining lines, values ahead:

Row | Kd (FGFR3 (V555M)) [nM] | Kd (FGFR3) [nM] | Kd (FGFR1) [nM] | Kd (FGFR2) [nM] | SMILES
12 | 0.1 to 100 | 0.1 to 100 | 0.1 to 100 | 0.1 to 100 | C=CC(=O)Nc1cnc2c(c1)c(C)cn2-c1nc(Nc2ccn(C3COC3)n2)ncc1C [Example 113, N-[3-methyl-1-[5-methyl-2-[[1-(oxetan-3-yl)pyrazol-3-yl]amino]-pyrimidin-4-yl]pyrrolo[2,3-b]pyridin-5-yl]prop-2-enamide]
13 | 0.1 to 100 | 0.1 to 100 | 0.1 to 100 | 0.1 to 100 | C=CC(=O)Nc1cnc2c(c1)c(C)cn2-c1nc(Nc2ccn(CC)n2)ncc1C [Example 114, N-[1-[2-[(1-ethylpyrazol-3-yl)amino]-5-methyl-pyrimidin-4-yl]-3-methyl-pyrrolo[2,3-b]pyridin-5-yl]prop-2-enamide]
14 | 0.1 to 100 | 0.1 to 100 | 100 to 250 | 100 to 250 | CCn1ccc(Nc2ncc(C)c(-n3cc(C)c4cc(NC(=O)/C=C/CN(C)C)cnc43)n2)n1 [Example 115, (E)-4-(dimethylamino)-N-[1-[2-[(1-ethylpyrazol-3-yl)amino]-5-methyl-pyrimidin-4-yl]-3-methyl-pyrrolo[2,3-b]pyridin-5-yl]but-2-enamide]
15 | 0.1 to 100 | 0.1 to 100 | 100 to 250 | 0.1 to 100 | C=C(Cl)C(=O)Nc1cnc2c(c1)c(C)cn2-c1nc(Nc2ccn(C)n2)ncc1C [Example 116, 2-chloro-N-[3-methyl-1-[5-methyl-2-[(1-methylpyrazol-3-yl)amino]pyrimidin-4-yl]pyrrolo[2,3-b]pyridin-5-yl]prop-2-enamide]
16 | > 1000 | > 1000 | > 1000 | > 1000 | C=C(F)C(=O)Nc1cnc2c(c1)c(C)cn2-c1nc(Nc2ccn(C)n2)ncc1C [Example 117, 2-fluoro-N-[3-methyl-1-[5-methyl-2-[(1-methylpyrazol-3-yl)amino]pyrimidin-4-yl]pyrrolo[2,3-b]pyridin-5-yl]prop-2-enamide]
17 | > 1000 | > 1000 | > 1000 | > 1000 | C=C(C)C(=O)Nc1cnc2c(c1)c(C)cn2-c1nc(Nc2ccn(C)n2)ncc1C [Example 118, 2-methyl-N-[3-methyl-1-[5-methyl-2-[(1-methylpyrazol-3-yl)amino]pyrimidin-4-yl]pyrrolo[2,3-b]pyridin-5-yl]prop-2-enamide]
18 | 0.1 to 100 | 0.1 to 100 | 0.1 to 100 | 0.1 to 100 | C=CC(=O)Nc1cnc2c(c1)c(C)cn2-c1nc(Nc2ccn(CCO)n2)ncc1C [Example 119, N-[1-[2-[[1-(2-hydroxyethyl)pyrazol-3-yl]amino]-5-methyl-pyrimidin-4-yl]-3-methyl-pyrrolo[2,3-b]pyridin-5-yl]prop-2-enamide]
19 | 0.1 to 100 | 0.1 to 100 | 0.1 to 100 | 0.1 to 100 | C#CC(=O)Nc1ccc2c(c1)c(C)cn2-c1nc(Nc2cnn(CCO)c2)ncc1F [Example 129, N-[1-[5-fluoro-2-[[1-(2-hydroxyethyl)pyrazol-4-yl]amino]pyrimidin-4-yl]-3-methyl-indol-5-yl]prop-2-ynamide]
20 | 250 to 1000 | > 1000 | > 1000 | 250 to 1000 | CC#CC(=O)Nc1ccc2c(c1)c(C)cn2-c1nc(Nc2ccnn2C)ncc1C [Example 130, N-[3-methyl-1-[5-methyl-2-[(2-methylpyrazol-3-yl)amino]pyrimidin-4-yl]indol-5-yl]but-2-ynamide]
21 | > 1000 | > 1000 | > 1000 | > 1000 | CC#CC(=O)Nc1cnc2c(c1)c(C)cn2-c1nc(Nc2ccnn2C)ncc1C [Example 131, N-[3-methyl-1-[5-methyl-2-[(2-methylpyrazol-3-yl)amino]pyrimidin-4-yl]pyrrolo[2,3-b]pyridin-5-yl]but-2-ynamide]
22 | 0.1 to 100 | 0.1 to 100 | 0.1 to 100 | 0.1 to 100 | C#CC(=O)Nc1cnc2c(c1)c(C)cn2-c1nc(Nc2ccnn2C)ncc1C [Example 132, N-[3-methyl-1-[5-methyl-2-[(2-methylpyrazol-3-yl)amino]pyrimidin-4-yl]pyrrolo[2,3-b]pyridin-5-yl]prop-2-ynamide]
23 | 0.1 to 100 | 0.1 to 100 | 0.1 to 100 | 0.1 to 100 | C#CC(=O)Nc1cnc2c(c1)c(C)cn2-c1nc(Nc2cnn(CCO)c2)ncc1F [Example 133, N-[1-[5-fluoro-2-[[1-(2-hydroxyethyl)pyrazol-4-yl]amino]pyrimidin-4-yl]-3-methyl-pyrrolo[2,3-b]pyridin-5-yl]prop-2-ynamide]
24 | > 1000 | > 1000 | > 1000 | > 1000 | CC#CC(=O)Nc1cnc2c(c1)c(C)cn2-c1nc(Nc2ccnn2C)ncc1F [Example 134, N-[1-[5-fluoro-2-[(2-methylpyrazol-3-yl)amino]pyrimidin-4-yl]-3-methyl-pyrrolo[2,3-b]pyridin-5-yl]but-2-ynamide]
